Legend:
[1] = target: T1, TGF-beta type I receptor (Mus musculus, UniProt Q64729); test: Systemic TGFβ receptor inhibition during PAN02 exosome education, liver immunofluorescence; assay type: in vivo; details: A83-01 i.p. during the three-week course of PAN02 exosome education
T1 construct: from tissue; host or cells: living C57Bl/6 mice; liver analysed by immunofluorescence
T1 sequence (Q64729 30-503): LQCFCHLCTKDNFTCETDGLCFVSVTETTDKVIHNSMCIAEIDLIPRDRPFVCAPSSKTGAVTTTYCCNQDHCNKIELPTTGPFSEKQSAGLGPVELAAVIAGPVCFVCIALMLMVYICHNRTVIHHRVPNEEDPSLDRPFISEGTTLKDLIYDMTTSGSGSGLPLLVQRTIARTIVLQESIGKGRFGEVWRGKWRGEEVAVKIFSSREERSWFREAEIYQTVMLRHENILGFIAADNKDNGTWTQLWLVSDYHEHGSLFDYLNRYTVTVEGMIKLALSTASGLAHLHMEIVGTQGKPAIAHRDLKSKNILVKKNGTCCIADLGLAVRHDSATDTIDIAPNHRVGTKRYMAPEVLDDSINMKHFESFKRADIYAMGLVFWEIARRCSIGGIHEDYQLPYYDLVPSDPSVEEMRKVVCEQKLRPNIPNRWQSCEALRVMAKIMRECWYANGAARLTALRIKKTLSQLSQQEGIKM
Procedure: Five micrograms of total exosomal protein was injected into the retro-orbital venous sinus in a total volume of 100 μl PBS. For education experiments, mice received 5 μg of exosomes every other day, 3 times a week. For exosome-tracking experiments, purified exosomes were fluorescently labelled using PKH67 membrane dye (Sigma). Labelled exosomes were washed in 20 ml of PBS, collected by ultracentrifugation, and resuspended in PBS. In experiments involving evaluation of exosome incorporation, labelled exosomes were injected 24 h before tissue collection and analysis for exosome^+ cells was conducted by flow cytometry or immunofluorescence. For exosome-tracking experiments, 5 μg of non-tumour exosomes from normal pancreas were used as controls. Unlabeled exosomes were used as controls of signal specificity. For education experiments, retro-orbital injection of PBS or normal pancreata exosomes was used in control groups.
For systemic TGFβ receptor inhibition, mice were treated with intraperitoneal injections of A83-01 (Santa Cruz). Mice were administered 10 μg of A83-01 (diluted in 100 μl of dimethylsulphoxide) per gram of mouse weight for a total of 9 doses, every other day, for the three weeks of PAN02 exosome education.
For histological analysis, tissues were dissected and fixed in a mix of 2% PFA and 20% sucrose solution overnight, and then embedded in Tissue-tek O.C.T. (Electron Microscopy Sciences). Blocks were frozen in a dry ice and ethanol bath. […] GFP and mCherry′ cells were detected by their intrinsic signal. Fluorescent images were obtained using a Nikon confocal microscope (Eclipse TE2000U) and analyzed using Nikon software (EZ-C1 3.6). FN and αSMA expression were quantified using ImageJ Software (NIH) by determining the ratio between the areas of FN and DAPI staining, expressed in arbitrary units (a.u.).

[2] = tested on: fibronectin; test: Tamoxifen-driven conditional FN knockout during PAN02 exosome education, liver immunofluorescence; assay type: in vivo, mouse; details: tamoxifen treatment of Rosa-CreER+; Fn fl/fl mice during PAN02 exosome education
Source text: To generate inducible FN knockout mice, we crossed B6; 129-Gt(ROSA)26SOR^tm1(cre/ERT2)Tyj/J mice expressing tamoxifen-sensitive Cre under the Gt(Rosa)26 or promoter (Jackson Laboratories, stock 008463) with mice homozygous for a floxed allele of fibronectin (Fn^fl/fl, generously provided by R. Fässler, Max Planck Institute of Biochemistry) (Sakai et al., “Plasma Fibronectin Supports Neuronal Survival and Reduces Brain Injury Following Transient Focal Cerebral Ischemia but is Not Essential for Skin-Wound Healing and Hemostasis,” Nat. Med. 7:324-330 (2001), which is hereby incorporated by reference in its entirety). […] For verification of Fn deletion, liver FN expression was evaluated by immunofluorescence.
For histological analysis, tissues were dissected and fixed in a mix of 2% PFA and 20% sucrose solution overnight, and then embedded in Tissue-tek O.C.T. (Electron Microscopy Sciences). […] GFP and mCherry′ cells were detected by their intrinsic signal. Fluorescent images were obtained using a Nikon confocal microscope (Eclipse TE2000U) and analyzed using Nikon software (EZ-C1 3.6). FN and αSMA expression were quantified using ImageJ Software (NIH) by determining the ratio between the areas of FN and DAPI staining, expressed in arbitrary units (a.u.).

Compound | F4/80+ macrophage migration to the liver [1] | FN deposition in the liver [1] | frequency of αSMA+ hStCs in the liver [1] | FN deposition in the liver [2] | αSMA expression in the liver [2]
Cc1cccc(-c2nn(C(=S)Nc3ccccc3)cc2-c2ccnc3ccccc23)n1 [A83-01, 3-(6-Methyl-2-pyridinyl)-N-phenyl-4-(4-quinolinyl)-1H-pyrazole-1-carbothioamide] | reduced | reduced | reduced |  | 
CC/C(=C(\c1ccccc1)c1ccc(OCCN(C)C)cc1)c1ccccc1 [tamoxifen] |  |  |  | reduced to control | not affected
